Assay results: ChEMBL document CHEMBL5260819, “Design and synthesis of 2-phenylpyrimidine coumarin derivatives as anticancer agents” (Bioorg Med Chem Lett, 2017)
Active and inactive are the calls of the source. The calls are words filed in the database; no cut-off is given here.

Key:
KB = assay: Anticancer activity against human KB cells assessed as inhibition of cell growth; type: functional, cell-based
CNE-2 [1] = assay: Anticancer activity against human CNE-2 cells assessed as induction of senescence by measuring shortening of telomer length at 0.5 to 1 uM incubated for 8 days by TRF analysis; type: functional, cell-based; settings: dose 0.5-1 µM, time 8.0 day
CNE-2 [2] = assay: Induction of apoptosis in human CNE-2 cells assessed as early apoptotic cells at 0.5 uM incubated for 4 days by annexin V-FITC/PI double-staining method (reference value: 8%); type: functional; settings: time 4 day
CNE-2 [3] = assay: Induction of apoptosis in human CNE-2 cells assessed as late apoptotic cells at 0.5 uM incubated for 4 days by annexin V-FITC/PI double-staining method (reference value: 0.1%); type: functional; settings: time 4 day
CNE-2 [4] = assay: Induction of apoptosis in human CNE-2 cells assessed as early apoptotic cells at 1 uM incubated for 4 days by annexin V-FITC/PI double-staining method (reference value: 8%); type: functional; settings: time 4 day
CNE-2 [5] = assay: Induction of apoptosis in human CNE-2 cells assessed as live cells at 0.5 uM incubated for 4 days by annexin V-FITC/PI double-staining method (reference value: 91.9%); type: functional; settings: time 4 day
CNE-2 [6] = assay: Induction of apoptosis in human CNE-2 cells assessed as live cells at 1 uM incubated for 4 days by annexin V-FITC/PI double-staining method (reference value: 91.9%); type: functional; settings: time 4 day
CNE-2 [7] = assay: Induction of apoptosis in human CNE-2 cells assessed as dead cells at 1 uM incubated for 4 days by annexin V-FITC/PI double-staining method (reference value: 0%); type: functional; settings: time 4 day
CNE-2 [8] = assay: Anticancer activity against human CNE-2 cells assessed as reduction in telomer length at 1 uM incubated for 8 days by TRF analysis; type: functional; settings: time 8 day
CNE-2 [9] = assay: Anticancer activity against human CNE-2 cells assessed as inhibition of cell growth; type: functional, cell-based
CNE-2 [10] = assay: Anticancer activity against human CNE-2 cells assessed as shortening of telomer length at 0.5 uM incubated for 8 days by TRF analysis; type: functional, cell-based; settings: time 8.0 day
[11] = biological target: Telomerase reverse transcriptase (Homo sapiens, UniProt O14746); assay: Inhibition of telomerase activity in human CNE-2 cells; type: cell-based
Sequence of Telomerase reverse transcriptase (O14746 whole entry): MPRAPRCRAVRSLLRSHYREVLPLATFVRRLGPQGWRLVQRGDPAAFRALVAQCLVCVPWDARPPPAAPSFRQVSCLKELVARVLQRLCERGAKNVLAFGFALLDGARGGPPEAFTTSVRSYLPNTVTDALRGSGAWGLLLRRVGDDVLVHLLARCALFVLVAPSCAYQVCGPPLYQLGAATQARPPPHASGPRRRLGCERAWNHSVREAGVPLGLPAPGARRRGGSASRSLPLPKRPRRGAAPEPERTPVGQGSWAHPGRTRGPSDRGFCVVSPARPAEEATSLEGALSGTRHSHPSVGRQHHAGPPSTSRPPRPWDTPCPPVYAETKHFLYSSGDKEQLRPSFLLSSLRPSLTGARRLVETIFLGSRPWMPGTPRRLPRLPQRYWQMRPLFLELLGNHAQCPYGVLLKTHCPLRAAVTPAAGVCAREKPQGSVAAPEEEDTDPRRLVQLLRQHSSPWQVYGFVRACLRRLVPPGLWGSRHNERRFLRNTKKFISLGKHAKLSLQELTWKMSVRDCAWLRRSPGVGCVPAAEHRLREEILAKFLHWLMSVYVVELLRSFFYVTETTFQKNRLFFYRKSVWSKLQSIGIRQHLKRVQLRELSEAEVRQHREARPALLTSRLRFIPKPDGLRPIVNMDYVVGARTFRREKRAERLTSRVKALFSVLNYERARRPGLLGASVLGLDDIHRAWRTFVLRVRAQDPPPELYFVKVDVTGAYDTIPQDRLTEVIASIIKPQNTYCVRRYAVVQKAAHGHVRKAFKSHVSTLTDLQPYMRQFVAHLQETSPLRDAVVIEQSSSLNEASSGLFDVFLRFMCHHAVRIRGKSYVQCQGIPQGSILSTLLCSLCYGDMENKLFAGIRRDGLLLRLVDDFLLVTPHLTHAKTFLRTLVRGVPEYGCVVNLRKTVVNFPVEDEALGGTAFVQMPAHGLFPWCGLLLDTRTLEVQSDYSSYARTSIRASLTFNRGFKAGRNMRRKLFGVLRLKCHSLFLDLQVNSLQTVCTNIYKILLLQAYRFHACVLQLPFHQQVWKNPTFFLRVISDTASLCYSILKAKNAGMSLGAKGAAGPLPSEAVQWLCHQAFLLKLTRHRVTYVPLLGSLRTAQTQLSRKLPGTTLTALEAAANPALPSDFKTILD

CNE-2 [12] = assay: Induction of apoptosis in human CNE-2 cells assessed as late apoptotic cells at 1 uM incubated for 4 days by annexin V-FITC/PI double-staining method (reference value: 0.1%); type: functional; settings: time 4 day
CNE-2 [13] = assay: Induction of apoptosis in human CNE-2 cells assessed as dead cells at 0.5 uM incubated for 4 days by annexin V-FITC/PI double-staining method (reference value: 0%); type: functional; settings: time 4 day
CAL-27 = assay: Anticancer activity against human CAL-27 cells assessed as inhibition of cell growth; type: functional, cell-based

| IC50 (KB) [µM] | IC50 [11] [µM] | SMILES | IC50 (CNE-2 [9]) [µM] | IC50 (CAL-27) [µM] | other results |
| --- | --- | --- | --- | --- | --- |
| 15.8 | – | Nc1nc(-c2cccc(OS(=O)(=O)c3ccc(Br)cc3)c2)nc2c1c(=O)oc1ccccc12 | 11.1 | 18.1 | – |
| 38.4 | – | COC(=O)c1ccc(S(=O)(=O)Oc2cccc(-c3nc(N)c4c(=O)oc5ccccc5c4n3)c2)s1 | > 100 | 47.5 | – |
| 7.35 | – | Nc1nc(-c2cccc(OS(=O)(=O)c3ccc(C(F)(F)F)cc3)c2)nc2c1c(=O)oc1ccccc12 | 2.34 | 4.32 | – |
| 3.04 | – | COc1cccc2c1C(=O)c1c(O)c3c(c(O)c1C2=O)C[C@@](O)(C(=O)CO)C[C@@H]3O[C@H]1C[C@H](N)[C@H](O)[C@H](C)O1 [DOXORUBICIN] | 2.12 | 1.56 | – |
| 17 | 21.1 | Nc1nc(-c2cccc(OS(=O)(=O)c3ccc([N+](=O)[O-])cc3)c2)nc2c1c(=O)oc1ccccc12 | 16.2 | 3.54 | – |
| 18.6 | – | COc1ccc(S(=O)(=O)Oc2cccc(-c3nc(N)c4c(=O)oc5ccccc5c4n3)c2)cc1 | 16.6 | 9.63 | – |
| 20.9 | – | Nc1nc(-c2cccc(OS(=O)(=O)c3ccc(Cl)s3)c2)nc2c1c(=O)oc1ccccc12 | 14.6 | 11.2 | – |
| 36.2 | – | Nc1nc(-c2cccc(OS(=O)(=O)c3ccc(Br)s3)c2)nc2c1c(=O)oc1ccccc12 | 18.6 | 18.3 | – |
| 5.62 | 7.35 | Nc1nc(-c2cccc(OS(=O)(=O)c3cccs3)c2)nc2c1c(=O)oc1ccccc12 | 4.24 | 10.1 | – |
| 6.74 | 3.16 | Nc1nc(-c2cccc(OS(=O)(=O)c3ccccc3)c2)nc2c1c(=O)oc1ccccc12 | 3.44 | 2.58 | – |
| 29.7 | 6.32 | COc1ccc(S(=O)(=O)Oc2cccc(-c3nc(N)c4c(=O)oc5ccccc5c4n3)c2)cc1OC | 20.6 | 17.6 | – |
| 11.6 | – | Nc1nc(-c2cccc(OS(=O)(=O)c3ccc(F)cc3)c2)nc2c1c(=O)oc1ccccc12 | 4.23 | 4.91 | – |
| > 100 | 58.6 | CS(=O)(=O)Oc1cccc(-c2nc(N)c3c(=O)oc4ccccc4c3n2)c1 | > 100 | > 100 | – |

| SMILES | IC50 (KB) [µM] | IC50 [11] [µM] | IC50 (CNE-2 [9]) [µM] | IC50 (CAL-27) [µM] | other results |
| --- | --- | --- | --- | --- | --- |
| CN(C)c1ccc(S(=O)(=O)Oc2cccc(-c3nc(N)c4c(=O)oc5ccccc5c4n3)c2)cc1 | 3.72 | 0.82 | 1.92 | 1.97 | Activity (CNE-2 [1]): Active; Activity (CNE-2 [2]): 28.2%; Activity (CNE-2 [3]): 6.7%; Activity (CNE-2 [4]): 39.5%; Activity (CNE-2 [5]): 65%; Activity (CNE-2 [6]): 45.2%; Activity (CNE-2 [7]): 0%; Activity (CNE-2 [8]): 0.8 kilobase; Activity (CNE-2 [10]): Active; Activity (CNE-2 [12]): 15.4%; Activity (CNE-2 [13]): 0.1% |
